According to patent US10392368B2, “Pyrazolo and triazolo bicyclic compounds as JAK kinase inhibitors” (THERAVANCE BIOPHARMA R&D IP, LLC, priority 2017, dated 2019):
Like-named read-outs stand apart in the source and are kept apart here.

Columns and labels:
[1] = target: T1, JAK3 (Homo sapiens, UniProt P52333); test: Biochemical JAK3 kinase assay (LanthaScreen); parameters: GST; purchased Life Technologies; conditions: for Ki: read-out: JAK 3 (pKi) (converted)
T1 sequence (P52333 1-1124): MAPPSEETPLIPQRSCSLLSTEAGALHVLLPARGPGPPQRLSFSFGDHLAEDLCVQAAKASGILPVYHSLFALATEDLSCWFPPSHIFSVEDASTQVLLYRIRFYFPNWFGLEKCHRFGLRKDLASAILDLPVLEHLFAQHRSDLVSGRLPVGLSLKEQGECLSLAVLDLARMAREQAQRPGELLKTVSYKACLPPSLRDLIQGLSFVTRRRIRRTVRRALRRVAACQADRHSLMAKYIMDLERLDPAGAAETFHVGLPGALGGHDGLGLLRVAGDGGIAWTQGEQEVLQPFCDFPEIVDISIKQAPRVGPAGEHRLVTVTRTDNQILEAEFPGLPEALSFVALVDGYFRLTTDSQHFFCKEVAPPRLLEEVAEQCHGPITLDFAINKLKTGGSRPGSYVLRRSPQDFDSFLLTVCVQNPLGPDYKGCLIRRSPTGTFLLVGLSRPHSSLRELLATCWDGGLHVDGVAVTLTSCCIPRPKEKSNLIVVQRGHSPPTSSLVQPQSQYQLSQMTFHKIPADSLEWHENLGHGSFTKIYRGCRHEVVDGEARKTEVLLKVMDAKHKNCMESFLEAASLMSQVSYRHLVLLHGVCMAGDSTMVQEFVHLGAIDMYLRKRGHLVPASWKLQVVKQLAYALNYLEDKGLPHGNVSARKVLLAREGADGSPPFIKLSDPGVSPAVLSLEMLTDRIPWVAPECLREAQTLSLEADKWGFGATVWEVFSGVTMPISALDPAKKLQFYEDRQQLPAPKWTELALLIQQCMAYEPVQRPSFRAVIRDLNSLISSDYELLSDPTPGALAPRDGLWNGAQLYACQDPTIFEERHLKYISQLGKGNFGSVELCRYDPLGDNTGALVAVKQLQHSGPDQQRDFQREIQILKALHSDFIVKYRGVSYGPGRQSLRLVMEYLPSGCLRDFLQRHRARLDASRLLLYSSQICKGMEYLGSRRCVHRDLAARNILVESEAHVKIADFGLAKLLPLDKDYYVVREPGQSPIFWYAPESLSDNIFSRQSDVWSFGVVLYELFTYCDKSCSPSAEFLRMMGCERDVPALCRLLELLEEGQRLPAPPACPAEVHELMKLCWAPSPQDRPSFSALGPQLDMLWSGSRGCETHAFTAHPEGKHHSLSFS
Procedure, shortened: (§1)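 GST-tagged JAK enzyme and GFP-STAT1 peptide preincubated with compound 1 h, then ATP added; 1 h kinase reaction at ambient temperature, pH 7.5 HEPES/MgCl2 buffer, 1% DMSO. Tb-anti-pSTAT1 (pTyr701) TR-FRET, 520/495 nm ratio; IC50 from 4-parameter fit, converted to pKi via Cheng-Prusoff.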

[2] = tested on: IL-2 stimulated pSTAT5 in Tall-1 T cells; test: Cellular JAK3 potency assay: inhibition of IL-2 stimulated pSTAT5 in Tall-1 T cells; assay type: cell-based, human; conditions: for IC50: Homo sapiens, read-out: Tall-1 (pIC50) (converted)
Procedure, shortened: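 Tall-1 human T cells were preincubated with compound for 1 h at 37° C, then stimulated with IL-2 (300 ng/ml final) for 30 min. STAT5 phosphorylation in lysates was read by AlphaLisa bead emission, and IC50 from inhibition curves is given as pIC50 (mean±SD).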

[3] = target: T2, JAK1 (Homo sapiens, UniProt P23458); test: Biochemical JAK1 kinase assay (LanthaScreen); conditions: for Ki: read-out: JAK 1 (pKi) (converted)
T2 construct: GST; purchased Life Technologies
Procedure, shortened: as §1

[4] = selectivity: difference of pKi JAK3 and pKi JAK1
[5] = IL-2 stimulated pSTAT5 in Tall-1 T cells
[6] = selectivity JAK3 over JAK1, difference of pKi
[7] = IL-2 stimulated pSTAT5, Tall-1 T cells
[8] = TALL-1, IL-2 stimulated pSTAT5, Tall-1 T cells
[9] = TALL-1, IL-2 stimulated pSTAT5 in Tall-1 T cells

T2 sequence (P23458 whole entry): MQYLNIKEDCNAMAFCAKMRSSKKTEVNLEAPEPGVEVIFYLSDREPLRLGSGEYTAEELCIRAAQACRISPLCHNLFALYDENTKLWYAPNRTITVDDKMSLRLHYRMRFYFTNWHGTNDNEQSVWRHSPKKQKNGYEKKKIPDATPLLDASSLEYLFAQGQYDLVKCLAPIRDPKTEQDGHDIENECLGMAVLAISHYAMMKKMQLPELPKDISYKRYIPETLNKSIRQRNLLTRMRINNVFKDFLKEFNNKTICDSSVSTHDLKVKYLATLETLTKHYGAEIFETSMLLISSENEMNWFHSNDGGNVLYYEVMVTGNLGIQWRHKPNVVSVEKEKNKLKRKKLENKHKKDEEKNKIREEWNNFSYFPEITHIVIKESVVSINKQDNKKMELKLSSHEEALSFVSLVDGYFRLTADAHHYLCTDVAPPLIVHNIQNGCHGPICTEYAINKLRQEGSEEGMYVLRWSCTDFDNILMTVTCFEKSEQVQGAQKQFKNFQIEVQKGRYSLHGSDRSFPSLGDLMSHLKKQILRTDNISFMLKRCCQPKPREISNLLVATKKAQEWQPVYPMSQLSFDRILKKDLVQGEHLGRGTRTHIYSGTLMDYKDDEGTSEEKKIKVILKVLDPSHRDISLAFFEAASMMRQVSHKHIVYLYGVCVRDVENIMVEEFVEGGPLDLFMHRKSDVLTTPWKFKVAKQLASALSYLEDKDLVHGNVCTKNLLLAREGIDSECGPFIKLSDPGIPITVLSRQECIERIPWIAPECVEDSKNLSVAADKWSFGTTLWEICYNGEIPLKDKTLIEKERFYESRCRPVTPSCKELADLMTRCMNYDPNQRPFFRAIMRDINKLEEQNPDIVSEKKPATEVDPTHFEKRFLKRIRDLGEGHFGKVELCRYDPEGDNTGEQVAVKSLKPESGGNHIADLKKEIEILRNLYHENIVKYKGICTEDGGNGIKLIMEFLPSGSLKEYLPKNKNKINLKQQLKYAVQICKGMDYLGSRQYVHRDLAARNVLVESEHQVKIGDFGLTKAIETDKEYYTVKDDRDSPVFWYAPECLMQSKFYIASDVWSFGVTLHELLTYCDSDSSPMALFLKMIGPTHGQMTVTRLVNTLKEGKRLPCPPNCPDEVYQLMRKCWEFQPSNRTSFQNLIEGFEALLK

SMILES | JAK 3 (pKi) [1] | JAK3 (pKi)-JAK1 (pKi) [1, 4] | Tall-1 (pIC50) [2, 5] | JAK 1 (pKi) [3] | JAK3 (pKi)-JAK1 (pKi) [1, 6] | Tall-1 (pIC50) [2, 7] | Ki [1] [nM] | IC50 [2, 8] [nM] | Ki [3] [nM] | IC50 [2, 9] [nM]
C=CC(=O)N1CC(Oc2cc(-c3ccc(O)cc3)nc3[nH]ncc23)C1 [Compound 5-15] | A (a pKi value≥10 (Ki≤0.1 nM)) | A (a value of 3 or above) | B (a pIC50 value between 6.7 (included) and 7.5 (IC50 between 200 nM and 32 nM)) | E (a pKi value of 7 or below (Ki of 100 nM or above)) | – | – | – | – | – | –
CN(C)CC=CC(=O)N1C2CCC1CC(Oc1cc(-c3ccc(O)c(F)c3)cc3[nH]ncc13)C2 (centres unmarked) [Compound 10-5] | B (a pKi value between 9 and 10 (Ki between 1 nM and 0.1 nM)) | – | – | D (a pKi value between 7 and 8 (Ki between 100 nM and 10 nM)) | C (a value of 1.8 to 2.3) | B (a pIC50 value between 6.7 (included) and 7.5 (IC50 between 200 nM and 32 nM)) | – | – | – | –
C=CC(=O)N1CC[C@H](Nc2cc(-c3ccc(O)cc3)cc3[nH]ncc23)C[C@@H]1C [Compound 12-15] | – | – | – | – | B (a value of 2.3 to 3) | – | 0.1 to 1 | 31.6 to 200 | > 100 | –
C=CC(=O)N1CCC(C(=O)Nc2cc(-c3ccc(O)cc3)cc3[nH]ncc23)CC1 [Compound 12-59] | – | – | – | – | A (a value of 3 or above) | – | < 0.1 | 31.6 to 200 | > 100 | –
C=CC(=O)N1CC(C(C)(C)Oc2cc(-c3ccc(O)c(F)c3)cc3[nH]ncc23)C1 [Compound 3-28] | A (a pKi value≥10 (Ki≤0.1 nM)) | A (a value of 3 or above) | A (a pIC50 value≥7.5 (IC50≤32 nM)) | E (a pKi value of 7 or below (Ki of 100 nM or above)) | – | – | – | – | – | –
O=C(/C=C/CN1CCSCC1)N1CC(COc2cc(-c3ccc(O)cc3)cc3[nH]ncc23)C1 [Compound 3-130] | – | A (a value of 3 or above) | – | – | – | – | 0.1 to 1 | – | > 100 | 31.6 to 200
CN(C)C/C=C/C(=O)N1CC(CN(C)c2nc(-c3ccc(O)cc3)cc3[nH]ncc23)C1 [Compound 4-8] | B (a pKi value between 9 and 10 (Ki between 1 nM and 0.1 nM)) | B (a value of 2.3 to 3) | B (a pIC50 value between 6.7 (included) and 7.5 (IC50 between 200 nM and 32 nM)) | E (a pKi value of 7 or below (Ki of 100 nM or above)) | – | – | – | – | – | –
C[C@@H]1C[C@H](Oc2cc(-c3ccc(O)cc3)cc3[nH]ncc23)CN1C(=O)/C=C/CN(C)C [Compound 1-10] | – | A (a value of 3 or above) | – | – | – | – | 0.1 to 1 | – | > 100 | 200 to 1000
C=CC(=O)N1CC[C@H](COc2nc(-c3ccc(O)cc3)nc3[nH]ncc23)C1 [Compound 2-7] | B (a pKi value between 9 and 10 (Ki between 1 nM and 0.1 nM)) | A (a value of 3 or above) | B (a pIC50 value between 6.7 (included) and 7.5 (IC50 between 200 nM and 32 nM)) | E (a pKi value of 7 or below (Ki of 100 nM or above)) | – | – | – | – | – | –
C=CC(=O)N1CCCC(C(=O)Nc2cc(-c3ccc(O)cc3)cc3[nH]ncc23)C1 (centres unmarked) [Compound 12-40] | – | – | – | – | B (a value of 2.3 to 3) | – | 0.1 to 1 | 200 to 1000 | > 100 | –
C=CC(=O)N1CC[C@H](Oc2cc(-c3ccc(O)cc3)cc3[nH]nc(SC)c23)C1 [Compound 1-39] | – | A (a value of 3 or above) | – | – | – | – | 0.1 to 1 | – | > 100 | 31.6 to 200
CN(C)C/C=C/C(=O)N1CC[C@@H](Sc2cc(-c3ccc(O)cc3)cc3[nH]ncc23)C1 [Compound 12-3] | – | – | – | – | B (a value of 2.3 to 3) | – | 0.1 to 1 | 200 to 1000 | 10 to 100 | –
CN(C)C/C=C/C(=O)N1CCC(Nc2cc(-c3ccc(O)cc3)cc3[nH]ncc23)C(F)(F)C1 (centres unmarked) [Compound 7-5] | – | – | – | – | C (a value of 1.8 to 2.3) | – | 0.1 to 1 | 31.6 to 200 | 10 to 100 | –
C=CC(=O)N1CC(CC)(COc2cc(-c3ccc(O)c(Cl)c3)cc3[nH]ncc23)C1 [Compound 3-16] | A (a pKi value≥10 (Ki≤0.1 nM)) | A (a value of 3 or above) | B (a pIC50 value between 6.7 (included) and 7.5 (IC50 between 200 nM and 32 nM)) | E (a pKi value of 7 or below (Ki of 100 nM or above)) | – | – | – | – | – | –
C=CC(=O)N1CC[C@H](COc2nc(-c3ccc(O)c(Cl)c3)cc3[nH]ncc23)C1 [Compound 2-14] | A (a pKi value≥10 (Ki≤0.1 nM)) | A (a value of 3 or above) | A (a pIC50 value≥7.5 (IC50≤32 nM)) | E (a pKi value of 7 or below (Ki of 100 nM or above)) | – | – | – | – | – | –
CN(C)C/C=C/C(=O)N1CC(COc2cc(-c3ccc(O)c(F)c3F)cc3[nH]ncc23)C1 [Compound 3-82] | – | B (a value of 2.3 to 3) | – | – | – | – | < 0.1 | – | 10 to 100 | < 31.6
CN(C)C/C=C/C(=O)N1CC(C)(Oc2cc(-c3ccc(O)cc3)cc3[nH]ncc23)C1 [Compound 5-11] | B (a pKi value between 9 and 10 (Ki between 1 nM and 0.1 nM)) | A (a value of 3 or above) | B (a pIC50 value between 6.7 (included) and 7.5 (IC50 between 200 nM and 32 nM)) | E (a pKi value of 7 or below (Ki of 100 nM or above)) | – | – | – | – | – | –
C=CC(=O)N1CC(COc2cc(-c3ccc(O)cc3)cc3[nH]nc(C)c23)C1 [Compound 18-5] | – | – | – | – | B (a value of 2.3 to 3) | – | 0.1 to 1 | < 31.6 | 10 to 100 | –
CN(C)C/C=C/C(=O)N1CCC(COc2cc(-c3ccc(O)c(Cl)c3)cc3[nH]ncc23)CC1 [Compound 14-3] | B (a pKi value between 9 and 10 (Ki between 1 nM and 0.1 nM)) | – | – | E (a pKi value of 7 or below (Ki of 100 nM or above)) | B (a value of 2.3 to 3) | B (a pIC50 value between 6.7 (included) and 7.5 (IC50 between 200 nM and 32 nM)) | – | – | – | –
C=CC(=O)N1CCC[C@H](Oc2nc(-c3ccc(O)c(Cl)c3)cc3[nH]ncc23)C1 [Compound 8-10] | A (a pKi value≥10 (Ki≤0.1 nM)) | – | – | D (a pKi value between 7 and 8 (Ki between 100 nM and 10 nM)) | A (a value of 3 or above) | A (a pIC50 value≥7.5 (IC50≤32 nM)) | – | – | – | –
